Where “and” joins values, the source holds several entries; their conditions need not be identical. Equal values may be shown once. Inconclusive results and toxic doses are left out.
Test system: BDF1 mice, P388 leukemia ip, median survival T/C
Assay: NCI In Vivo Anticancer Drug Screen. Data for tumor model P388 Leukemia (intraperitoneal) in B6D2F1 (BDF1) mice
Conditions: endpoint: median survival time, higher = longer survival
How it was run: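 Antitumour effect was judged in vivo: survival in drug-treated mice, normalised to that of vehicle-dosed controls, gives the reported T/C.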

[1] = dose: 50.0 mg/kg/injection, schedule: Q01DX009 (ip), vehicle: saline with Tween-80
[2] = dose: 100.0 mg/kg/injection, schedule: Q01DX009 (ip), vehicle: saline with Tween-80
[3] = dose: 200.0 mg/kg/injection, schedule: Q01DX009 (ip), vehicle: saline with Tween-80
[4] = dose: 12.5 mg/kg/injection, schedule: Q04DX003 (ip), vehicle: saline
[5] = dose: 25.0 mg/kg/injection, schedule: Q04DX003 (ip), vehicle: saline
[6] = dose: 100.0 mg/kg/injection, schedule: Q04DX003 (ip), vehicle: Klucel (hydroxypropylcellulose) (HPC)
[7] = dose: 200.0 mg/kg/injection, schedule: Q04DX003 (ip), vehicle: Klucel (hydroxypropylcellulose) (HPC)
[8] = dose: 400.0 mg/kg/injection, schedule: Q04DX003 (ip), vehicle: Klucel (hydroxypropylcellulose) (HPC)
[9] = dose: 25.0 mg/kg/injection, schedule: Q01DX009 (ip), vehicle: saline with Tween-80
[10] = dose: 50.0 mg/kg/injection, schedule: Q01DX009 (ip), vehicle: Klucel (hydroxypropylcellulose) (HPC)
[11] = dose: 100.0 mg/kg/injection, schedule: Q01DX009 (ip), vehicle: Klucel (hydroxypropylcellulose) (HPC)
[12] = dose: 200.0 mg/kg/injection, schedule: Q01DX009 (ip), vehicle: Klucel (hydroxypropylcellulose) (HPC)

In the case of `Cc1cccn2c(CCc3nnc4c(C)cccn34)nnc12`, the T/C [1] is reported as 97 % of control, the T/C [2] is reported as 93 % of control and the T/C [3] is reported as 89 % of control.

With `Cc1ccccc1NC(=O)C1CCC(C)(C(=O)O)C1(C)C` (stereo unspecified) the T/C (dose: 100.0 mg/kg/injection, schedule: Q04DX003 (ip), vehicle: saline with Tween-80) was 90 % of control, the T/C (dose: 200.0 mg/kg/injection, schedule: Q04DX003 (ip), vehicle: saline with Tween-80) was 100 % of control and the T/C (dose: 400.0 mg/kg/injection, schedule: Q04DX003 (ip), vehicle: saline with Tween-80) was 90 % of control.

With `CCOC(=O)N1CCc2cc(OC)c(OC)cc2C1Cc1ccc(OC)c(OC)c1` (stereo unspecified) the T/C (dose: 50.0 mg/kg/injection, schedule: Q01DX005 (ip), vehicle: saline with Tween-80) was 92 % of control, the T/C (dose: 100.0 mg/kg/injection, schedule: Q01DX005 (ip), vehicle: saline with Tween-80) was 105 % of control and the T/C (dose: 200.0 mg/kg/injection, schedule: Q01DX005 (ip), vehicle: saline with Tween-80) was 92 % of control.

In the case of `Cn1cnc([N+](=O)[O-])c1[Se]c1ncnc2c1c(C#N)cn2C1OC(CO)C(O)C1O` (stereo unspecified), the T/C (dose: 6.25 mg/kg/injection, schedule: Q04DX003 (ip), vehicle: saline) is reported as 93 % of control, the T/C [4] is reported as 119 % of control and the T/C [5] is reported as 102 % of control.

With `CCOC(=O)C1(C)C(=O)CC2c3nc4ccccc4cc3CN2C1=O` (stereo unspecified) the T/C [6] was 100 % of control, the T/C [7] was 100 % of control and the T/C [8] was 100 % of control.

With `CSC1C(=O)Nc2cccc(C#N)c21` (stereo unspecified) the T/C (dose: 50.0 mg/kg/injection, schedule: Q04DX002 (ip), vehicle: saline with Tween-80) was 102 % of control, the T/C (dose: 100.0 mg/kg/injection, schedule: Q04DX002 (ip), vehicle: saline with Tween-80) was 98 % of control and the T/C (dose: 200.0 mg/kg/injection, schedule: Q04DX002 (ip), vehicle: saline with Tween-80) was 102 % of control.

`NC(=O)c1nc(C(F)(F)F)[nH]c1C(N)=O` was tested, and the T/C (dose: 25.0 mg/kg/injection, schedule: Q01DX009 (ip), vehicle: water) was 107 % of control, the T/C (dose: 50.0 mg/kg/injection, schedule: Q01DX009 (ip), vehicle: water) was 105 % of control and 107 % of control and the T/C (dose: 50.0 mg/kg/injection, schedule: Q04DX003 (ip), vehicle: water) was 102 % of control. For the same compound, the T/C (dose: 100.0 mg/kg/injection, schedule: Q01DX009 (ip), vehicle: water) was 108 % of control and 118 % of control, the T/C (dose: 100.0 mg/kg/injection, schedule: Q04DX003 (ip), vehicle: water) was 102 % of control and the T/C (dose: 200.0 mg/kg/injection, schedule: Q01DX009 (ip), vehicle: water) was 107 % of control and 118 % of control. The T/C (dose: 200.0 mg/kg/injection, schedule: Q04DX003 (ip), vehicle: water) was 109 % of control, the T/C (dose: 300.0 mg/kg/injection, schedule: Q01DX009 (ip), vehicle: water) was 96 % of control and the T/C (dose: 400.0 mg/kg/injection, schedule: Q01DX009 (ip), vehicle: water) was 118 % of control. For the same compound, the T/C (dose: 400.0 mg/kg/injection, schedule: Q04DX003 (ip), vehicle: water) was 102 % of control.

For `O=C/C=C/c1ccc([N+](=O)[O-])cc1`, the T/C [9] was 104 % of control, the T/C [1] was 108 % of control and the T/C [2] was 91 % of control.

`O=S(=O)(O)O.[O]=[V]` was tested, and the T/C (dose: 3.12 mg/kg/injection, schedule: Q01DX009 (ip), vehicle: saline) was 89 % of control, the T/C (dose: 6.25 mg/kg/injection, schedule: Q01DX009 (ip), vehicle: saline) was 92 % of control and the T/C (dose: 8.75 mg/kg/injection, schedule: Q01DX001 (ip), vehicle: saline) was 95 % of control. The T/C (dose: 12.5 mg/kg/injection, schedule: Q01DX009 (ip), vehicle: saline) was 100 % of control, the T/C [4] was 92 % of control and 100 % of control and the T/C (dose: 17.5 mg/kg/injection, schedule: Q01DX001 (ip), vehicle: saline) was 100 % of control. For the same compound, the T/C (dose: 25.0 mg/kg/injection, schedule: Q01DX009 (ip), vehicle: saline) was 100 % of control, the T/C [5] was 95 % of control and the T/C (dose: 35.0 mg/kg/injection, schedule: Q01DX001 (ip), vehicle: saline) was 100 % of control. The T/C (dose: 50.0 mg/kg/injection, schedule: Q01DX001 (ip), vehicle: saline) was 90 % of control and the T/C (dose: 50.0 mg/kg/injection, schedule: Q04DX003 (ip), vehicle: saline) was 89 % of control.

In the case of `S=C(NC1CCCCC1)NC1CCCCC1`, the T/C [10] is reported as 113 % of control, the T/C (dose: 100.0 mg/kg/injection, schedule: Q01DX001 (ip), vehicle: Klucel (hydroxypropylcellulose) (HPC)) is reported as 109 % of control and the T/C [11] is reported as 86 % of control. The T/C (dose: 200.0 mg/kg/injection, schedule: Q01DX001 (ip), vehicle: Klucel (hydroxypropylcellulose) (HPC)) was 113 % of control, the T/C [12] was 100 % of control and the T/C (dose: 400.0 mg/kg/injection, schedule: Q01DX001 (ip), vehicle: Klucel (hydroxypropylcellulose) (HPC)) was 100 % of control.

With `[O-]/[N+](=C\C=C\c1ccccc1)c1ccccc1` the T/C [6] was 100 % of control, the T/C [7] was 86 % of control and the T/C [8] was 90 % of control.

In the case of `Oc1ccc(Cl)c2cccnc12`, the T/C (dose: 12.5 mg/kg/injection, schedule: Q01DX010 (ip), vehicle: carboxymethylcellulose (CMC)) is reported as 104 % of control, the T/C (dose: 25.0 mg/kg/injection, schedule: Q01DX010 (ip), vehicle: carboxymethylcellulose (CMC)) is reported as 104 % of control and the T/C (dose: 50.0 mg/kg/injection, schedule: Q01DX010 (ip), vehicle: carboxymethylcellulose (CMC)) is reported as 109 % of control.

`Cc1cc(=O)c2cccc(C)c2[nH]1` was tested, and the T/C [10] was 96 % of control, the T/C [11] was 96 % of control and the T/C [6] was 95 % of control. The T/C [12] was 92 % of control and the T/C [7] was 91 % of control.

In the case of `Cc1nc2nc(N)[nH]c(=O)c2[nH]c1=O`, the T/C [2] is reported as 104 % of control, the T/C [3] is reported as 100 % of control and the T/C (dose: 400.0 mg/kg/injection, schedule: Q01DX009 (ip), vehicle: saline with Tween-80) is reported as 109 % of control.

`O=C(CN1CC1)NCCCCCCCCNC(=O)CN1CC1` was tested, and the T/C (dose: 12.5 mg/kg/injection, schedule: Q01DX009 (ip), vehicle: saline with Tween-80) was 200 % of control, the T/C [9] was 259 % of control and the T/C (dose: 33.0 mg/kg/injection, schedule: Q04DX003 (ip), vehicle: saline with Tween-80) was 190 % of control. The T/C [1] was 86 % of control, the T/C (dose: 50.0 mg/kg/injection, schedule: Q04DX003 (ip), vehicle: saline with Tween-80) was 209 % of control and the T/C (dose: 75.0 mg/kg/injection, schedule: Q04DX003 (ip), vehicle: saline with Tween-80) was 245 % of control.

For `OCC1OC(O)C(O)C(O)C1O` (stereo unspecified), the T/C (dose: 500.0 mg/kg/injection, schedule: Q01DX009 (ip), vehicle: saline) was 124 % of control, the T/C (dose: 500.0 mg/kg/injection, schedule: Q04DX003 (ip), vehicle: saline) was 100 % of control and the T/C (dose: 1000.0 mg/kg/injection, schedule: Q01DX009 (ip), vehicle: saline) was 117 % of control. The T/C (dose: 1000.0 mg/kg/injection, schedule: Q04DX003 (ip), vehicle: saline) was 100 % of control, the T/C (dose: 2000.0 mg/kg/injection, schedule: Q01DX009 (ip), vehicle: saline) was 120 % of control and the T/C (dose: 2000.0 mg/kg/injection, schedule: Q04DX003 (ip), vehicle: saline) was 100 % of control. The T/C (dose: 4000.0 mg/kg/injection, schedule: Q01DX009 (ip), vehicle: saline) was 100 % of control and the T/C (dose: 4000.0 mg/kg/injection, schedule: Q04DX003 (ip), vehicle: saline) was 102 % of control.

`Nc1nc(SN=Nc2ccc(S(=O)(=O)O)cc2)c2[nH]cnc2n1` was tested, and the T/C (dose: 4.0 mg/kg/injection, schedule: Q01DX009 (ip), vehicle: Klucel (hydroxypropylcellulose) (HPC)) was 113 % of control, the T/C (dose: 9.0 mg/kg/injection, schedule: Q01DX009 (ip), vehicle: Klucel (hydroxypropylcellulose) (HPC)) was 121 % of control and the T/C (dose: 20.0 mg/kg/injection, schedule: Q04DX003 (ip), vehicle: Klucel (hydroxypropylcellulose) (HPC)) was 108 % of control. The T/C (dose: 30.0 mg/kg/injection, schedule: Q04DX003 (ip), vehicle: Klucel (hydroxypropylcellulose) (HPC)) was 120 % of control, the T/C (dose: 45.0 mg/kg/injection, schedule: Q04DX003 (ip), vehicle: Klucel (hydroxypropylcellulose) (HPC)) was 112 % of control and the T/C (dose: 66.0 mg/kg/injection, schedule: Q04DX003 (ip), vehicle: saline) was 122 % of control. For the same compound, the T/C (dose: 100.0 mg/kg/injection, schedule: Q04DX003 (ip), vehicle: saline) was 118 % of control, the T/C (dose: 150.0 mg/kg/injection, schedule: Q04DX003 (ip), vehicle: Klucel (hydroxypropylcellulose) (HPC)) was 115 % of control and the T/C (dose: 150.0 mg/kg/injection, schedule: Q04DX003 (ip), vehicle: saline) was 113 % of control. For the same compound, the T/C [7] was 116 % of control.

Source: PubChem BioAssay AID328 (DTP/NCI, 2004)
